Drawing on patent US11649229B2, “Amide compounds for treatment of immune and inflammatory disorders” (Achillion Pharmaceuticals, Inc., priority 2015, dated 2023), this text covers IC50 for 1 compound.

For the experiment, the target named is Human Factor D (Homo sapiens (Human), UniProt P00746). Kind of experiment: Human Factor D assay. Type of experiment: biochemical. To be noted: Human Factor D 80 nM, substrate Z-L-Lys-SBzl, assay of Example 12. As for the experimental part:
Human Factor D (purified from human serum, Complement Technology, Inc.) at 80 nM final concentration is incubated with test compound at various concentrations for 5 minutes at room temperature in 50 mM Tris, 1M NaCl, pH 7.5. A synthetic substrate Z-L-Lys-SBzl and DTNB (Ellman's reagent) are added to final concentrations of 100 μM each. Absorbance at 405 nm (A405) is recorded at 30 second intervals for 30 minutes using a microplate spectrophotometer. IC50 values are calculated by nonlinear regression of complement Factor D reaction rates as a function of test compound concentration.
The assay of Example 12 was used to determine the IC50's of the compounds. Other standard Factor D inhibition assays are also available.

Molecules are shown by their SMILES. Bounds are passed on as bounds.

Sequence of Human Factor D (P00746 26-253): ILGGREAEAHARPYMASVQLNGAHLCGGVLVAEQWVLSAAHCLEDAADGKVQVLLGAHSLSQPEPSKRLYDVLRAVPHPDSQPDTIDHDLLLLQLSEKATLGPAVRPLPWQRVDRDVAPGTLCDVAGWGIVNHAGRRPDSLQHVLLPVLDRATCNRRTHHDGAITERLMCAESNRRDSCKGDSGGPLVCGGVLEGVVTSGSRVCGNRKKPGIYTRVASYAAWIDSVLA

Regarding `Cc1cccc(NC(=O)[C@@H]2CCC(F)CCN2C(=O)Cn2cc(C(N)=O)c3cc(C(=O)NS(=O)(=O)C4CC4)ccc32)n1` (stereo partly drawn) [compound 8, N5-(cyclopropylsulfonyl)-1-(2-((2S)-5-fluoro-2-((6-methylpyridin-2-yl)carbamoyl)azepan-1-yl)-2-oxoethyl)-1H-indole-3,5-dicarboxamide], the half-inhibitory concentration (IC50) (commonly the concentration needed to halve the response being measured) was more than 10 µM.
